Key:
KCHSC (Kochia scoparia) = test: Outdoor plot trial, post-emergence treatment, visual evaluation of herbicidal activity; assay type: in vivo; details: Example B.I, outdoors
Procedure: (§1) Outdoors, crop plants were grown on plots of a size of from 5 to 10 m^2 on various soils and under various climatic conditions, and the natural presence of harmful plants and/or their seeds in the soil was utilized for the experiments. The treatment with the compositions according to the invention or the herbicides A) and B) applied individually was carried out after emergence of the harmful and the crop plants, in general at the 2- to 4-leaf stage. The active compounds or active compound combinations, formulated as WG, WP or EC, was carried out by the post-emergence method. After 2 to 8 weeks, visual evaluation was carried out in comparison with an untreated comparative group. […] In addition, the herbicidal activities of the compositions according to the invention exceed the expected values according to Colby.
(§2) If the observed activity values of the mixtures already exceed the formal sum of the values for the trials with individual applications, they also exceed the expected value according to Colby which is calculated using the following formula (cf. S. R. Colby; in Weeds 15 (1967) pp. 20 to 22):
(§3) The figures denote: • A, B=Activity of Components A and B in percent, at a dosage of a and b gram of ai/ha, respectively. • E=Expected value in % at a dosage of a+b gram of ai/ha.

[1] = tested on: CHEAL (Chenopodium album); test: as above; assay type: in vivo; details: outdoors
Procedure: as §1, §2, §3

[2] = tested on: PHBPU (Pharbitis purpurea); test: as above; assay type: in vivo; details: outdoors
Procedure: as §1, §2, §3

[3] = tested on: POROL (Portulaca oleracea); test: as above; assay type: in vivo; details: outdoors
Procedure: as §1, §2, §3

TRZDU (Triticum davam) = test: Outdoor plot trial, post-emergence treatment, damage to crop plant; details: in vivo
Procedure: as §1

HORVS (Hordeum vulgaris) = test: as above; assay type: in vivo; details: Example B.VI, 100 g of ai/ha
Procedure: as §1

ZEAMX (Zea mays) = test: as above; assay type: in vivo; details: Example B.VII, 300 g of ai/ha
Procedure: as §1

BRAPL = test: Outdoor plot trial, post-emergence treatment, visual evaluation of herbicidal activity; assay type: in vivo; details: Example B.VII, 300 g of ai/ha, outdoors
Procedure: as §1, §2, §3

CS(=O)(=O)c1ccc(C(=O)C2C(=O)CCCC2=O)c(Cl)c1C1=NOCC1 [Compound A1]
KCHSC found (KCHSC (Kochia scoparia); 25 g of ai/ha): 28%

Cc1cc(C(=O)C2C(=O)CCCC2=O)c(C)c2c1S(=O)(=O)CCC2Oc1ncccn1 (stereo not shown) [Compound A2]
CHEAL found ([1]; Example B.IV, 100 g of ai/ha): 34% | PHBPU found ([2]; Example B.II, 50 g of ai/ha): 65% | PHBPU found ([2]; Example B.III, 100 g of ai/ha): 45% | POROL found ([3]; Example B.V, 100 g of ai/ha): 0%

CS(=O)(=O)c1ccc(C(=O)C2C(=O)CCCC2=O)c(Cl)c1COCC(F)(F)F [Compound A4]
TRZDU found (TRZDU (Triticum davam)): 5% | POROL found ([3]; Example B.VIII, 25 g of ai/ha): 5%

COc1cc(OC)nc(NC(=O)NS(=O)(=O)c2ccc(NC=O)cc2C(=O)N(C)C)n1 [Compound B1]
KCHSC found (KCHSC (Kochia scoparia); 30 g of ai/ha): 30% | KCHSC found (KCHSC (Kochia scoparia); 60 g of ai/ha): 33% | PHBPU found ([2]; Example B.II, 30 g of ai/ha): 20% | POROL found ([3]; Example B.V, 30 g of ai/ha): 43%

CP(=O)(O)CCC(N)C(=O)O (stereo not shown) [Compound B2, glufosinate]
CHEAL found ([1]; Example B.IV, 500 g of ai/ha): 60% | PHBPU found ([2]; Example B.III, 500 g of ai/ha): 43%

CC(C)(F)c1nc(N)nc(NC(CCc2ccccc2)C2CCC2)n1 (stereo not shown) [Compound B3]
HORVS found (HORVS (Hordeum vulgaris)): 0% | CHEAL found ([1]; Example B.VI, 100 g of ai/ha): 30%

COC(=O)c1ccc(I)cc1S(=O)(=O)[N-]C(=O)Nc1nc(C)nc(OC)n1.[Na+] [Compound B4]
TRZDU found (TRZDU (Triticum davam)): 15% | POROL found ([3]; Example B.VIII, 2.5 g of ai/ha): 20%

N#Cc1cc(Br)c(O)c(Br)c1 [Compound B5, bromoxynil]
ZEAMX found (ZEAMX (Zea mays)): 0% | BRAPL found (BRAPL): 0%

Reference: patent US7056863B1, “Synergistic herbicidal compositions herbicides from the group of the hydroxyphenylpyruvate dioxygenase inhibitors” (Aventis CropScience GmbH, priority 1999, dated 2006)
